{"source": "PubChem BioAssay AID248", "about": "(DTP/NCI, 2004)", "system": "L1210 leukemia ip in BDF1 mice, survival T/C", "test": "NCI In Vivo Anticancer Drug Screen. Data for tumor model L1210 Leukemia (intraperitoneal) in B6D2F1 (BDF1) mice", "details": "higher = longer survival", "procedure,_shortened": "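In this screen, tumor-bearing mice given compound are compared to those given vehicle, and their survival values are reported as a treated-to-control quotient.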", "note": "Inconclusive results and toxic doses are left out.", "data": [{"smiles": "O=C1CN=C(c2ccc[nH]2)c2cc(Cl)ccc2N1", "values": [{"measurement": "T/C", "setting": "endpoint: mean survival time, dose: 100.0 mg/kg/injection, schedule: Q03HX008 (oral), vehicle: saline with Tween-80", "result": "123 % of control"}, {"measurement": "T/C", "setting": "endpoint: mean survival time, dose: 100.0 mg/kg/injection, schedule: Q03HX024 (oral), vehicle: saline with Tween-80", "result": "121 % of control"}, {"measurement": "T/C", "setting": "endpoint: mean survival time, dose: 100.0 mg/kg/injection, schedule: Q04DX003 (ip), vehicle: other", "result": "105 % of control"}, {"measurement": "T/C", "setting": "endpoint: mean survival time, dose: 100.0 mg/kg/injection, schedule: Q04DX003 (oral), vehicle: saline with Tween-80", "result": "109 % of control"}, {"measurement": "T/C", "setting": "endpoint: mean survival time, dose: 100.0 mg/kg/injection, schedule: Q08DX002 (ip), vehicle: other", "result": "115 % of control"}, {"measurement": "T/C", "setting": "endpoint: mean survival time, dose: 100.0 mg/kg/injection, schedule: Q08DX002 (oral), vehicle: saline with Tween-80", "result": "103 % of control"}, {"measurement": "T/C", "setting": "endpoint: mean survival time, dose: 102.0 mg/kg/injection, schedule: Q01DX007 (oral), vehicle: other", "result": "108 % of control"}, {"measurement": "T/C", "setting": "endpoint: mean survival time, dose: 112.0 mg/kg/injection, schedule: Q01DX015 (ip), vehicle: other", "result": "158 % of control"}, {"measurement": "T/C", "setting": "endpoint: mean survival time, dose: 112.5 mg/kg/injection, schedule: Q01DX Z (ip), vehicle: carboxymethylcellulose (CMC)", "result": "170 % of control"}, {"measurement": "T/C", "setting": "endpoint: mean survival time, dose: 120.0 mg/kg/injection, schedule: Q01DX009 (ip), vehicle: other", "result": "116 % of control"}, {"measurement": "T/C", "setting": "endpoint: mean survival time, dose: 156.0 mg/kg/injection, schedule: Q01DX007 (oral), vehicle: other", "result": "112 % of control"}, {"measurement": "T/C", "setting": "endpoint: mean survival time, dose: 180.0 mg/kg/injection, schedule: Q01DX009 (ip), vehicle: other", "result": "155 % of control"}, {"measurement": "T/C", "setting": "endpoint: mean survival time, dose: 200.0 mg/kg/injection, schedule: Q01DX001 (ip), vehicle: other", "result": "106 % of control"}, {"measurement": "T/C", "setting": "endpoint: mean survival time, dose: 200.0 mg/kg/injection, schedule: Q01DX001 (iv), vehicle: other", "result": "108 % of control"}, {"measurement": "T/C", "setting": "endpoint: mean survival time, dose: 200.0 mg/kg/injection, schedule: Q01DX001 (oral), vehicle: saline with Tween-80", "result": "116 % of control"}, {"measurement": "T/C", "setting": "endpoint: mean survival time, dose: 200.0 mg/kg/injection, schedule: Q01DX009 (oral), vehicle: saline with Tween-80", "result": "109 % of control"}, {"measurement": "T/C", "setting": "endpoint: mean survival time, dose: 200.0 mg/kg/injection, schedule: Q04DX003 (ip), vehicle: other", "result": "114 % of control"}, {"measurement": "T/C", "setting": "endpoint: mean survival time, dose: 200.0 mg/kg/injection, schedule: Q04DX003 (oral), vehicle: saline with Tween-80", "result": "115 % of control"}, {"measurement": "T/C", "setting": "endpoint: mean survival time, dose: 200.0 mg/kg/injection, schedule: Q08DX002 (ip), vehicle: other", "result": "118 % of control"}, {"measurement": "T/C", "setting": "endpoint: mean survival time, dose: 200.0 mg/kg/injection, schedule: Q08DX002 (oral), vehicle: saline with Tween-80", "result": "105 % of control"}, {"measurement": "T/C", "setting": "endpoint: mean survival time, dose: 225.0 mg/kg/injection, schedule: Q01DX Z (ip), vehicle: carboxymethylcellulose (CMC)", "result": "86 % of control"}, {"measurement": "T/C", "setting": "endpoint: mean survival time, dose: 240.0 mg/kg/injection, schedule: Q01DX007 (oral), vehicle: other", "result": "119 % of control"}, {"measurement": "T/C", "setting": "endpoint: mean survival time, dose: 400.0 mg/kg/injection, schedule: Q01DX001 (ip), vehicle: other", "result": "112 % of control"}, {"measurement": "T/C", "setting": "endpoint: mean survival time, dose: 400.0 mg/kg/injection, schedule: Q01DX001 (iv), vehicle: other", "result": "109 % of control"}, {"measurement": "T/C", "setting": "endpoint: mean survival time, dose: 400.0 mg/kg/injection, schedule: Q01DX001 (oral), vehicle: saline with Tween-80", "result": "108 % of control"}, {"measurement": "T/C", "setting": "endpoint: mean survival time, dose: 400.0 mg/kg/injection, schedule: Q01DX009 (ip), vehicle: Klucel (hydroxypropylcellulose) (HPC)", "result": "109 % of control"}, {"measurement": "T/C", "setting": "endpoint: mean survival time, dose: 400.0 mg/kg/injection, schedule: Q01DX009 (ip), vehicle: water", "result": "108 % of control"}, {"measurement": "T/C", "setting": "endpoint: mean survival time, dose: 400.0 mg/kg/injection, schedule: Q01DX009 (oral), vehicle: saline with Tween-80", "result": "105 % of control"}, {"measurement": "T/C", "setting": "endpoint: mean survival time, dose: 400.0 mg/kg/injection, schedule: Q04DX003 (ip), vehicle: other", "result": "114 % of control"}, {"measurement": "T/C", "setting": "endpoint: mean survival time, dose: 400.0 mg/kg/injection, schedule: Q08DX002 (ip), vehicle: other", "result": "109 % of control"}, {"measurement": "T/C", "setting": "endpoint: mean survival time, dose: 400.0 mg/kg/injection, schedule: Q08DX002 (oral), vehicle: saline with Tween-80", "result": "109 % of control"}, {"measurement": "T/C", "setting": "endpoint: mean survival time, dose: 540.0 mg/kg/injection, schedule: Q01DX001 (oral), vehicle: other", "result": "110 % of control"}, {"measurement": "T/C", "setting": "endpoint: mean survival time, dose: 720.0 mg/kg/injection, schedule: Q01DX001 (oral), vehicle: other", "result": "110 % of control"}, {"measurement": "T/C", "setting": "endpoint: mean survival time, dose: 800.0 mg/kg/injection, schedule: Q08DX002 (oral), vehicle: saline with Tween-80", "result": "121 % of control"}, {"measurement": "T/C", "setting": "endpoint: median survival time, dose: 2.0 mg/kg/injection, schedule: Q03HX008 (ip), vehicle: clinical formulation", "result": "95 % of control"}, {"measurement": "T/C", "setting": "endpoint: median survival time, dose: 32.0 mg/kg/injection, schedule: Q04DX003 (ip), vehicle: clinical formulation", "result": "90 % of control"}, {"measurement": "T/C", "setting": "endpoint: median survival time, dose: 50.0 mg/kg/injection, schedule: Q01DX009 (ip), vehicle: steriod suspending solution", "result": "100 % of control"}, {"measurement": "T/C", "setting": "endpoint: median survival time, dose: 50.0 mg/kg/injection, schedule: Q01DX009 (sc), vehicle: steriod suspending solution", "result": "100 % of control"}, {"measurement": "T/C", "setting": "endpoint: median survival time, dose: 64.0 mg/kg/injection, schedule: Q01DX001 (ip), vehicle: clinical formulation", "result": "95 % of control"}, {"measurement": "T/C", "setting": "endpoint: median survival time, dose: 64.0 mg/kg/injection, schedule: Q04DX003 (ip), vehicle: clinical formulation", "result": "100 % of control"}, {"measurement": "T/C", "setting": "endpoint: median survival time, dose: 100.0 mg/kg/injection, schedule: Q01DX001 (ip), vehicle: acid diluted with saline", "result": "100 % of control"}, {"measurement": "T/C", "setting": "endpoint: median survival time, dose: 100.0 mg/kg/injection, schedule: Q01DX009 (ip), vehicle: steriod suspending solution", "result": "100 % of control"}, {"measurement": "T/C", "setting": "endpoint: median survival time, dose: 100.0 mg/kg/injection, schedule: Q01DX009 (sc), vehicle: steriod suspending solution", "result": "100 % of control"}, {"measurement": "T/C", "setting": "endpoint: median survival time, dose: 200.0 mg/kg/injection, schedule: Q01DX001 (ip), vehicle: acid diluted with saline", "result": "95 % of control"}, {"measurement": "T/C", "setting": "endpoint: median survival time, dose: 200.0 mg/kg/injection, schedule: Q01DX009 (ip), vehicle: steriod suspending solution", "result": "122 % of control"}, {"measurement": "T/C", "setting": "endpoint: median survival time, dose: 200.0 mg/kg/injection, schedule: Q01DX009 (sc), vehicle: steriod suspending solution", "result": "100 % of control"}, {"measurement": "T/C", "setting": "endpoint: median survival time, dose: 400.0 mg/kg/injection, schedule: Q01DX009 (ip), vehicle: steriod suspending solution", "result": "150 % of control"}, {"measurement": "T/C", "setting": "endpoint: median survival time, dose: 400.0 mg/kg/injection, schedule: Q01DX009 (sc), vehicle: steriod suspending solution", "result": "122 % of control"}, {"measurement": "T/C", "setting": "endpoint: median survival time, dose: 800.0 mg/kg/injection, schedule: Q01DX009 (ip), vehicle: steriod suspending solution", "result": "88 % of control"}]}]}
